Common to all, as to type: cell-based
The target in one assay is T1, hGCGR (Homo sapiens, UniProt P47871).
T1 construct: expressed in transfected cells
Kind of assay: Functional cAMP formation (HTRF) in HEK-293 clonal cells expressing hGCGR, 0.1% bovine casein, without or with 1.0% human serum albumin. The following applies: read-out: hGCGR EC50, nM (SEM, n). An outline of the steps:
(§1)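 Cells were stimulated with peptide for 30 min at 37° C, then lysed in buffer carrying cAMP-d2 and anti-cAMP Eu3+-cryptate for a competitive HTRF read after at least 60 min at room temperature. The 665/620 nm ratio was converted to nM cAMP against a standard curve.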
(Cyclic AMP is a second messenger, typically raised through Gs and lowered through Gi signalling.)

The next assay deals with T2, hGIPR (Homo sapiens, UniProt P48546).
T2 construct: expressed in transfected cells
T2 sequence (P48546 22-466): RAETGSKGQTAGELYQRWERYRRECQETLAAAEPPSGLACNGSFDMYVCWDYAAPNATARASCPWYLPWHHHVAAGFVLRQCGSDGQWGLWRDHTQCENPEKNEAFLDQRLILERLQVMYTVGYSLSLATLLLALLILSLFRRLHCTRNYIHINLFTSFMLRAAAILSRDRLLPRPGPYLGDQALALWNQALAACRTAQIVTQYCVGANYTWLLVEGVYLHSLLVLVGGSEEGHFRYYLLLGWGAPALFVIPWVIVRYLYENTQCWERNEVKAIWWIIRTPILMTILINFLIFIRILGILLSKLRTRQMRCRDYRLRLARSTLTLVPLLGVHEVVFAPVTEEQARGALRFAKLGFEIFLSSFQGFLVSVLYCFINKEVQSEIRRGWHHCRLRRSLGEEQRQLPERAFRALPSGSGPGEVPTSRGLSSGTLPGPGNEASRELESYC
Kind of assay: Functional cAMP formation (HTRF) in HEK-293 clonal cells expressing hGIPR, 0.1% bovine casein, without or with 1.0% human serum albumin. The following applies: for Emax: read-out: hGIPR Emax, % ± SEM; for EC50: geometric mean, read-out: hGIPR EC50, nM (SEM, n). An outline of the steps: as §1

In another assay the target is hGLP-1R (Homo sapiens, UniProt P43220). Put plainly: Functional cAMP formation (HTRF) in HEK-293 clonal cells expressing hGLP-1R, 0.1% bovine casein, without or with 1.0% human serum albumin. Also on record: expressed in transfected cells. Particulars: for Emax: read-out: hGLP-1R Emax, % ± SEM; for EC50: cAMP, 0.1% bovine casein (no human serum albumin), geometric mean, read-out: hGLP-1R EC50, nM (SEM, n). An outline of the steps:
as §1

[1] abbreviates: 0.1% bovine casein and 1.0% human serum albumin, 37° C., geometric mean.
Setting [2] is: cAMP, incubated at 37° C., 0.1% bovine casein (no human serum albumin), geometric mean.
Setting [3] is: HEK293, 0.1% bovine casein and 1.0% human serum albumin, 37° C., percent of maximal response to GIP(1-42)NH2.
Setting [4] is: HEK293, percent of maximal response to GLP-1(7-36)NH2, 37° C., 0.1% bovine casein, arithmetic mean.
[5] abbreviates: HEK293, percent of maximal response to GIP(1-42)NH2, 37° C., 0.1% bovine casein, arithmetic mean.

Like-named read-outs stand apart in the source and are kept apart here. *1 amine or outer side, *2 acyl side, *3 side chain or, on linkers, in order; H or OH if unused. Where a SMILES comes first, the peptide text is derived from it. Side-chain parts run from the residue outwards. [ ]: non-standard residue; d: D form. The star is where a group is joined. αMePhe(2-F) = C[C@](N)(Cc1ccccc1F)C(=O)O; γGlu = O=C(O)[C@H](CCC(=O)[*:2])N[*:1]; C14 diacid = O=C(O)CCCCCCCCCCCCC(=O)*; αMeY = C[C@](N)(Cc1ccc(O)cc1)C(=O)O; 4Pal = N[C@@H](Cc1ccncc1)C(=O)O; αMeL = CC(C)C[C@](C)(N)C(=O)O; Orn = NCCC[C@H](N)C(=O)O; AEEA = NCCOCCOCC(=O)O; Aib = CC(C)(N)C(=O)O Some results are limits rather than exact numbers.

Experimental findings from US20230265151A1, “GIP/GLP1 CO-AGONIST COMPOUNDS” (priority 2020, published 2023) are described below.

T1 sequence (P47871 26-477): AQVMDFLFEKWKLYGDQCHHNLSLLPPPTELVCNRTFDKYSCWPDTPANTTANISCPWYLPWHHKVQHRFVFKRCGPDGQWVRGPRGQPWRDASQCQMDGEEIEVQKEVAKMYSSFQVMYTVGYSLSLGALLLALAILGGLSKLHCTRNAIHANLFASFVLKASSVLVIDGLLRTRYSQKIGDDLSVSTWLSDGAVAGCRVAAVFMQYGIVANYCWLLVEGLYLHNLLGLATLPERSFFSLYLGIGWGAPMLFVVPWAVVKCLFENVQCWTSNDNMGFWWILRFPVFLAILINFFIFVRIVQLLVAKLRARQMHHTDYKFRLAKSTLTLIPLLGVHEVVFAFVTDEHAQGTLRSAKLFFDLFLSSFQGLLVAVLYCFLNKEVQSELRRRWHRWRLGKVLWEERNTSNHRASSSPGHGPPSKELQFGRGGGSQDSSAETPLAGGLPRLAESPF
Chain of hGLP-1R (P43220 24-463): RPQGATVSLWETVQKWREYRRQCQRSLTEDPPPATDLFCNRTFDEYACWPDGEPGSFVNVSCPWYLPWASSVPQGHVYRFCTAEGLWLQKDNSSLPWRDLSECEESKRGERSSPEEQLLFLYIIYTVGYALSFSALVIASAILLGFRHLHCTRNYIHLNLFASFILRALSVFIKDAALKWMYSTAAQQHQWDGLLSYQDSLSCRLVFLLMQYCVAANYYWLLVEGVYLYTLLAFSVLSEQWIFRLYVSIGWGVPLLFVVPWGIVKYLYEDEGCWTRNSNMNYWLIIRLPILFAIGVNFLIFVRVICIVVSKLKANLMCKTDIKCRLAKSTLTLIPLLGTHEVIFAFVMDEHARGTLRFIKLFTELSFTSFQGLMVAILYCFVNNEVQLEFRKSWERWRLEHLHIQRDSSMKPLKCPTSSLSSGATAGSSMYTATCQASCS

As to `CC[C@H](C)[C@H](NC(=O)CNC(=O)[C@H](Cc1ccncc1)NC(=O)[C@H](CC(=O)O)NC(=O)[C@H](CO)NC(=O)[C@@H](NC(=O)[C@](C)(Cc1ccccc1F)NC(=O)[C@@H](NC(=O)CNC(=O)[C@H](CCC(=O)O)NC(=O)C(C)(C)NC(=O)[C@@H](N)Cc1ccc(O)cc1)[C@@H](C)O)[C@@H](C)O)C(=O)N[C@@](C)(CC(C)C)C(=O)N[C@@H](CC(C)C)C(=O)N[C@@H](CC(=O)O)C(=O)N[C@@H](CCCN)C(=O)N[C@@H](CCCCNC(=O)COCCOCCNC(=O)COCCOCCNC(=O)CC[C@H](NC(=O)CCCCCCCCCCCCC(=O)O)C(=O)O)C(=O)N[C@@H](C)C(=O)N[C@@H](CCC(N)=O)C(=O)NC(C)(C)C(=O)N[C@@H](CCC(=O)O)C(=O)N[C@@H](Cc1ccccc1)C(=O)N[C@H](C(=O)N[C@H](CCC(=O)O)C(=O)N[C@@](C)(Cc1ccc(O)cc1)C(=O)N[C@@H](CC(C)C)C(=O)N[C@H](C(=O)N[C@@H](CCC(=O)O)C(=O)NCC(=O)NCC(=O)N[C@@H](CCCCNC(=O)COCCOCCNC(=O)COCCOCCNC(=O)CC[C@H](NC(=O)CCCCCCCCCCCCC(=O)O)C(=O)O)C(=O)N[C@@H](CO)C(=O)N[C@@H](CO)C(=O)NCC(=O)N[C@@H](C)C(=O)N1CCC[C@H]1C(=O)N1CCC[C@H]1C(=O)N1CCC[C@H]1C(=O)N[C@@H](CO)C(N)=O)[C@@H](C)CC)[C@@H](C)CC` [Example 100] (H-Y[Aib]EGT[αMePhe(2-F)]TSD[4Pal]GI[αMeL]LD[Orn]K([AEEA-AEEA-γGlu-C14 diacid])AQ[Aib]EFI[dE][αMeY]LIEGGK([AEEA-AEEA-γGlu-C14 diacid])SSGAPPPS-NH2; N-terminus assumed), the EC50 (commonly the concentration needed to bring the measured effect to its halfway point) is over 9950 nM on hGCGR (setting [1]), over 9950 nM on hGCGR (setting [2]) and 11.4 nM on hGLP-1R (incubated at 37° C.). For the same compound, the Emax (as a rule, the greatest response seen or fitted, relative to the assay's reference) worked out at 98.3% at hGIPR (setting [3]); 123% at hGLP-1R (HEK293, 0.1% bovine casein and 1.0% human serum albumin, 37° C., percent of maximal response to GLP-1(7-36)NH2); 111% on hGLP-1R (setting [4]).

With `CC[C@H](C)[C@H](NC(=O)[C@H](CCCN)NC(=O)[C@H](CC(=O)O)NC(=O)[C@H](CC(C)C)NC(=O)[C@](C)(CC(C)C)NC(=O)[C@@H](NC(=O)[C@H](CO)NC(=O)[C@H](CCCCNC(=O)COCCOCCNC(=O)COCCOCCNC(=O)CC[C@H](NC(=O)CCCCCCCCCCCCC(=O)O)C(=O)O)NC(=O)[C@H](CC(=O)O)NC(=O)[C@H](CO)NC(=O)[C@@H](NC(=O)[C@](C)(Cc1ccccc1F)NC(=O)[C@@H](NC(=O)CNC(=O)[C@H](CCC(=O)O)NC(=O)C(C)(C)NC(=O)[C@@H](N)Cc1ccc(O)cc1)[C@@H](C)O)[C@@H](C)O)[C@@H](C)CC)C(=O)N[C@@H](C)C(=O)N[C@@H](CCC(N)=O)C(=O)NC(C)(C)C(=O)N[C@@H](CCC(=O)O)C(=O)N[C@@H](Cc1ccccc1)C(=O)N[C@H](C(=O)N[C@H](CCC(=O)O)C(=O)N[C@@](C)(Cc1ccc(O)cc1)C(=O)N[C@@H](CC(C)C)C(=O)N[C@H](C(=O)N[C@@H](CCCCNC(=O)COCCOCCNC(=O)COCCOCCNC(=O)CC[C@H](NC(=O)CCCCCCCCCCCCC(=O)O)C(=O)O)C(=O)NCC(=O)NCC(=O)N1CCC[C@H]1C(=O)N[C@@H](CO)C(=O)N[C@@H](CO)C(=O)NCC(=O)N[C@@H](C)C(=O)N1CCC[C@H]1C(=O)N1CCC[C@H]1C(=O)N1CCC[C@H]1C(=O)N[C@@H](CO)C(N)=O)[C@@H](C)CC)[C@@H](C)CC` [Example 107] (H-Y[Aib]EGT[αMePhe(2-F)]TSDK([AEEA-AEEA-γGlu-C14 diacid])SI[αMeL]LD[Orn]IAQ[Aib]EFI[dE][αMeY]LIK([AEEA-AEEA-γGlu-C14 diacid])GGPSSGAPPPS-NH2), the EC50 was over 9950 nM on hGCGR (setting [2]) and 0.0473 nM on hGIPR (cAMP, incubated at 37° C., 0.1% bovine casein (no human serum albumin)). For the same compound, the Emax on hGIPR (setting [5]) turned out to be 94.3%; at hGLP-1R (setting [4]), 93.4%.

As to `CC[C@H](C)[C@H](NC(=O)[C@H](CC(C)C)NC(=O)[C@](C)(Cc1ccc(O)cc1)NC(=O)[C@@H](CCC(=O)O)NC(=O)[C@@H](NC(=O)[C@H](Cc1ccccc1)NC(=O)[C@H](CCC(=O)O)NC(=O)C(C)(C)NC(=O)[C@H](CCC(N)=O)NC(=O)[C@H](C)NC(=O)[C@H](CCCCNC(=O)COCCOCCNC(=O)COCCOCCNC(=O)COCCOCCNC(=O)CC[C@H](NC(=O)CCCCCCCCCCCCC(=O)O)C(=O)O)NC(=O)[C@H](CCCN)NC(=O)[C@H](CC(=O)O)NC(=O)[C@H](CC(C)C)NC(=O)[C@](C)(CC(C)C)NC(=O)[C@@H](NC(=O)[C@H](CO)NC(=O)[C@H](Cc1ccncc1)NC(=O)[C@H](CC(=O)O)NC(=O)[C@H](CO)NC(=O)[C@@H](NC(=O)[C@](C)(Cc1ccccc1F)NC(=O)[C@@H](NC(=O)CNC(=O)[C@H](CCC(=O)O)NC(=O)C(C)(C)NC(=O)[C@@H](N)Cc1ccc(O)cc1)[C@@H](C)O)[C@@H](C)O)[C@@H](C)CC)[C@@H](C)CC)C(=O)N[C@@H](CCCCNC(=O)COCCOCCNC(=O)COCCOCCNC(=O)COCCOCCNC(=O)CC[C@H](NC(=O)CCCCCCCCCCCCC(=O)O)C(=O)O)C(=O)NCC(=O)NCC(=O)N1CCC[C@H]1C(=O)N[C@@H](CO)C(=O)N[C@@H](CO)C(=O)NCC(=O)N[C@@H](C)C(=O)N1CCC[C@H]1C(=O)N1CCC[C@H]1C(=O)N1CCC[C@H]1C(=O)N[C@@H](CO)C(N)=O` [Example 224], the EC50 at hGCGR (setting [1]) is over 9950 nM; on hGCGR (setting [2]) it was over 9950 nM; at hGIPR (0.1% bovine casein and 1.0% human serum albumin, 37° C.), 2.92 nM; at hGLP-1R (incubated at 37° C.) it was 7.51 nM. Moreover, the Emax on hGIPR (setting [3]) amounted to 90.6%; at hGIPR (setting [5]) it was 109%; on hGLP-1R (setting [4]), 88.4%.

On to `CC[C@H](C)[C@H](NC(=O)[C@H](CC(C)C)NC(=O)[C@](C)(Cc1ccc(O)cc1)NC(=O)[C@@H](CCC(=O)O)NC(=O)[C@@H](NC(=O)[C@H](Cc1ccccc1)NC(=O)[C@H](CCCCNC(=O)COCCOCCNC(=O)COCCOCCNC(=O)CCCCCCCCCCCCC(=O)O)NC(=O)C(C)(C)NC(=O)[C@H](CCC(N)=O)NC(=O)[C@H](C)NC(=O)[C@H](CCCCNC(=O)COCCOCCNC(=O)COCCOCCNC(=O)CCCCCCCCCCCCC(=O)O)NC(=O)[C@H](CCCN)NC(=O)[C@H](CC(=O)O)NC(=O)[C@H](CC(C)C)NC(=O)[C@](C)(CC(C)C)NC(=O)[C@@H](NC(=O)C(C)(C)NC(=O)[C@H](Cc1ccncc1)NC(=O)[C@H](CC(=O)O)NC(=O)[C@H](CO)NC(=O)[C@@H](NC(=O)[C@](C)(Cc1ccccc1F)NC(=O)[C@@H](NC(=O)CNC(=O)[C@H](CCC(=O)O)NC(=O)C(C)(C)NC(=O)[C@@H](N)Cc1ccc(O)cc1)[C@@H](C)O)[C@@H](C)O)[C@@H](C)CC)[C@@H](C)CC)C(=O)N[C@@H](CCC(=O)O)C(=O)NCC(=O)NCC(=O)N1CCC[C@H]1C(=O)N[C@@H](CO)C(=O)N[C@@H](CO)C(=O)NCC(=O)N[C@@H](C)C(=O)N1CCC[C@H]1C(=O)N1CCC[C@H]1C(=O)N1CCC[C@H]1C(=O)N[C@@H](CO)C(N)=O` [Example 384], for which the EC50 at hGCGR (cAMP, 37° C., 0.1% bovine casein (no human serum albumin), geometric mean) was over 9950 nM; at hGCGR (cAMP, 37° C., 0.1% bovine casein and 1.0% human serum albumin, geometric mean (SEM, n)), over 9950 nM; at hGIPR (cAMP, 37° C., 0.1% bovine casein (no human serum albumin)) it was 0.0124 nM; on hGLP-1R (37° C.), 0.308 nM. Also, the Emax at hGIPR (HEK293, cAMP, 37° C., 0.1% bovine casein and 1.0% human serum albumin, percent of maximal response to GIP(1-42)NH2) is 83.5%; on hGIPR (HEK293, cAMP, 37° C., 0.1% bovine casein, percent of maximal response to GIP(1-42)NH2, arithmetic mean) it was 94.5%; on hGLP-1R (HEK293, cAMP, 37° C., 0.1% bovine casein, percent of maximal response to GLP-1(7-36)NH2, arithmetic mean), 98.2%.
